Source: patent publication US20080039434A1, “Treatment of Interstitial Cystitis with Vitamin D Compounds” (BioXell S. p.A., priority 2004, published 2008)

Columns and labels:
IL-13 = assay: Taq-Man analysis of bladder mRNA, allergic IC in mice: IL-13; type: in vivo, mouse; settings: ovalbumin challenged vs vehicle; oral ug/kg: E 0.3, F 30, H 1, I 3; H, I p<0.05, E, F p<0.001
Method: (§1) Mice (BALB/c, females 8 weeks old, weight 18-20 g, Charles River, Calco ITA) were sensitized by injecting 10 ug/mouse of chicken ovalbumin from Sigma (OVA, grade V) in the presence of 4 mg of alum (SERVA, Germany) by intraperitoneal injection, once a week for 4 weeks. This induces a sustained level of IgE detectable in serum.
(§2) One or two weeks after the last immunization boost, sensitized mice were anesthetized (1.5% Isoflurane) and then trans-urethrally catheterized (24 gauge, ¾ in.; Angiocath, Becton-Dickson). Slight digital pressure was applied the lower abdomen to drain the urine.
(§3) The urinary bladders were instilled with either 150 ul of either saline or OVA alone, (1 mg/150 ul) infused at a slow rate to avoid trauma and vesico-ureteral reflux and repeated twice within a 30-min interval with the syringe kept in place on the catheter for at least 30 min. Intravesical challenge was repeated 7-10 days after the first one with the same procedure.
(§4) An ethanol stock solution of Compound B (1 mg/ml) was dissolved in Miglyol vehicle at the appropriate concentration. Control animals received the vehicle containing the same amount of ethanol. Drug (or vehicle) treatment was carried out by daily gavage after weighing the animal. Drug solution was prepared calculating a final volume of 100 ul/10 grams body weight, and treatment was started on the day of the first intravesical ovalbumin challenge, maintained daily, but discontinued over the weekends, for 12 days total treatment. FIG. 7 illustrates the timeline of the experiment.
(§5) Total RNA was extracted from one half of bladder by using RNeasy Mini kit (Qiagen), treated with DNase 1 (Qiagen) and reverse transcription performed with Reverse Transcription Reagent (Applied Biosystems) with Random Hexamers (according to the manufacturer's instructions). cDNA was synthesized from 1 ug of RNA. Real-Time PCR was performed in 96-well optical reaction plates (Applied Biosystems). For each sample we amplified both the target gene and the housekeeping gene (HPRT) in different wells (singleplex) and in duplicate. The amplification Master Mix was prepared according to the following protocol (volumes refer to a single well with a final volume of 40 ul/well)): 2× TaqMan® R Universal PCR Master Mix (Applied Biosystems, 4304437): 20 ul; 20× Assay target gene: 2 ul; H2O: 8 ul; cDNA: 10 ul. Reaction was run on an SDS 7000 (Applied Biosystems) instruments, with the following amplification program: 2′ at 50° C.; 10′ at 95° C.; 15″ at 95° C. and 1′ at 60° C. for 40 cycles; Cycle threshold (Ct) values were exported into Excel Worksheets for analysis and relative quantitations were performed using the ΔCt method. All primers used carried the FAM reporter.
(§6) Experiments in Example 7 were performed according to the general procedures described previously in Example 6. Mice were challenged with saline (untreated) or ovalbumin (treatment with vehicle or one of Compounds C-I at a dosage indicated in Table 6 in ug/kg).

MMCP4 = assay: Taq-Man analysis of bladder mRNA, allergic IC in mice: MMCP4; type: in vivo, mouse; settings: ovalbumin challenged vs vehicle; oral ug/kg: E 0.3, F 30, H 1, I 3; H, I p<0.05, E, F p<0.001
Method: as §1, §2, §3, §4, §5, §6

[1] = tested on: allergen-induced chronic bladder inflammation; assay: Efficacy ranking in the allergen-induced chronic bladder inflammation model of interstitial cystitis; type: in vivo, mouse; settings: each compound at its tested dosage
Method: as §6
Summarizing all the results presented above in Example 7, we can conclude that these compounds can be ranked with respect to their efficacy in reducing several parameters measuring inflammation of the bladder in the allergen-induced chronic bladder inflammation model of interstitial cystitis.

[2] = tested on: ovalbumin-challenged mouse bladder; assay: Blind histological analysis of bladder sections, allergic IC in mice; type: in vivo; settings: p<0.05; for number of LMPC in the bladder wall: oral ug/kg: E 0.3, I 3, vs vehicle
Method: as §1, §2, §3, §4
Bladders were explanted from the animals, longitudinally divided in two moieties, one half was either immediately fixed in formalin (10% buffered) for at least 3 hrs or snap frozen in liquid nitrogen upon inclusion in OCT freezing medium (Tissue-Tek Sakura). For histological analysis, fixed bladders were further processed and finally paraffin embedded. Five um sections were serially cut then stained with GIEMSA (BDH, 20% solution, 3 hrs RT) and then de-stained in 0.1% acetic acid for 10 sec. After a clarification step in Xylene, slides were permanently mounted with Eukitt medium and analyzed by a pathologist in a blinded fashion in order to evaluate for inflammatory cell infiltrate, mast cell numbers, and the presence of interstitial edema. A semi-quantitative histological score was used, assigning: 1 for mild infiltrate, no edema; 2 for intermediate infiltration, little edema; and 3 for severe infiltration and edema.
as §6

MMCP1 protein = assay: Serum level of mast-cell derived chymase MMCP1 protein, allergic IC in mice; type: in vivo, mouse; settings: ovalbumin challenged vs vehicle; oral ug/kg: A 0.1, E 0.3, F 30; F p<0.05, A, E p<0.001
Method: as §1, §2, §3
Treatment Group: 10 mice were treated with oral vitamin D3 analogue (1-alpha-fluoro-25-hydroxy-16,23Ediene-26,27-bishomo-20-epi-cholecalciferol) Compound “B” for 14 days (daily dose of either 30 or 75 ug/kg).
as §4, §6

FcεR1α = assay: Taq-Man analysis of bladder mRNA, allergic IC in mice: FcεR1α; type: in vivo, mouse; settings: ovalbumin challenged vs vehicle; oral ug/kg: E 0.3, F 30, H 1; E, H p<0.05, F p<0.001
Method: as §1, §2, §3, §4, §5, §6

[3] = Calcemia assessment in allergic IC mice (colorimetric serum calcium assay); type: in vivo, mouse; settings: oral ug/kg: C 3, A 0.1, E 0.3, F 30, G 100, H 1, I 3; elevations p<0.001
Method: Serum calcemia was evaluated by a commercially available colorimetric assay (Calcium Dry-Fast, Sentinel CH. Italy). Briefly, 10 ul serum were added to 100 ul reaction solution prepared according to the manufacturer's procedure in a 96-wells plate. After 5 min incubation at RT samples were read at 570 nm with a spectrophotometer and the calcium levels were calculated in triplicate by using a standard reference as directed.

BPH cells = settings: previously found; cited from earlier work
[4] = tested on: patients with interstitial cystitis; settings: oral administration, long term basis; cited from earlier work

| Compound | serum calcium levels relative to the vehicle treated control group [3] | mRNA expression level of the IL-13 gene (IL-13) | mRNA expression level of MMCP4 gene (MMCP4) | Efficacy ranking in reducing parameters of bladder inflammation [1] | number of LMPC in the bladder wall [2] | serum level of the MMCP1 protein (MMCP1 protein) | mRNA expression level of the FcεR1α gene (FcεR1α) | BPH cell proliferation (BPH cells) | mitogenic activity of growth factors KGF and IGF1 for BPH cells (BPH cells) | patients who show a beneficial effect [4] | numbers of mast cells in the bladder wall ([2]; 3 ug/kg oral vs vehicle) |
| --- | --- | --- | --- | --- | --- | --- | --- | --- | --- | --- | --- |
| C=C1CC[C@H](O)C/C1=C/C=C1\CCC[C@]2(C)[C@@H]([C@H](C)CCCC(C)C)CC[C@@H]12 [vitamin D3] | – | – | – | – | – | – | – | inhibited | counteracted | – | – |
| CC(C)(O)CCCC(CCCC(C)(C)O)[C@H]1CC[C@H]2/C(=C/C=C3C[C@@H](O)C[C@H](O)C3)CCC[C@]12C [Compound I, 1,25-dihydroxy-21-(3-hydroxy-3-methylbutyl)-19-nor-cholecalciferol] | slight elevation | statistically significant reductions | statistically significant reductions | Compound E>Compound F>Compound B>Compound H>Compound I>Compound A>Compound A=Compound G | significant reduction | – | – | – | – | – | – |
| pentosan polysulphate sodium [PPS] | – | – | – | – | – | – | – | – | – | less than 20% | – |
| C=C1/C(=C\C=C2/CCC[C@]3(C)C(C4(CCCC(C)(C)O)CC4)=CCC23)CC(O)C[C@@H]1O (stereo partly drawn) [Compound H, 1α,25-Dihydroxy-16-ene-20-cyclopropyl-cholecalciferol] | slight elevation | statistically significant reductions | statistically significant reductions | Compound E>Compound F>Compound B>Compound H>Compound I>Compound A>Compound A=Compound G | – | – | statistically significant reductions | – | – | – | – |

The next lines start with results.

| serum calcium levels relative to the vehicle treated control group [3] | Compound | mRNA expression level of the IL-13 gene (IL-13) | mRNA expression level of MMCP4 gene (MMCP4) | Efficacy ranking in reducing parameters of bladder inflammation [1] | number of LMPC in the bladder wall [2] | serum level of the MMCP1 protein (MMCP1 protein) | mRNA expression level of the FcεR1α gene (FcεR1α) | BPH cell proliferation (BPH cells) | mitogenic activity of growth factors KGF and IGF1 for BPH cells (BPH cells) | patients who show a beneficial effect [4] | numbers of mast cells in the bladder wall ([2]; 3 ug/kg oral vs vehicle) |
| --- | --- | --- | --- | --- | --- | --- | --- | --- | --- | --- | --- |
| slight elevation | CC(=O)OC1C/C(=C/C=C2\CCC[C@@]3(C)C2CCC3C2(C/C=C/C(O)(C(F)(F)F)C(F)(F)F)CC2)C[C@@H](OC(C)=O)C1 (stereo partly shown) [Compound E, 1,3-Di-O-acetyl-1,25-dihydroxy-20-cyclopropyl-23E-ene-26,27-hexafluoro-19-nor-cholecalciferol] | statistically significant reductions | statistically significant reductions | Compound E>Compound F>Compound B>Compound H>Compound I>Compound A>Compound A=Compound G | significant reduction | statistically significant reduction | statistically significant reductions | – | – | – | – |
| slight elevation | C=C1/C(=C\C=C2/CCC[C@@]3(C)C2CCC3C2(CCCC(C)(C)O)CC2)CC(OC(C)=O)C[C@@H]1OC(C)=O (stereo partly shown) [Compound F, 1,3-Di-O-acetyl-1,25-dihydroxy-20-cyclopropyl-cholecalciferol] | statistically significant reductions | statistically significant reductions | Compound E>Compound F>Compound B>Compound H>Compound I>Compound A>Compound A=Compound G | – | statistically significant reduction | statistically significant reductions | – | – | – | – |
| slight elevation | CC(=O)OC1C/C(=C/C=C2\CCC[C@]3(C)C(C(C)CCCC(C)(C)O)=CCC23)C[C@@H](OC(C)=O)C1 (stereo partly shown) [Compound C, 1,3-Di-O-acetyl-1,25-dihydroxy-16-ene-19-nor-cholecalciferol] | – | – | – | – | – | – | – | – | – | significantly reduced numbers |
